Assay results reported in PMC10939713 (Pharmaceutical research, 2024).
“Also recorded” adds a separate entry of the source. Where a name gives a salt, the structure may show the parent alone.

Tests used:
[1] = Mouse pharmacokinetic natural product-drug interaction study; type: in vivo, C57BL/6 mice; conditions: for Cmax / AUC0-4h / AUC0-24h / Metabolite-to-parent AUC0-4h ratio / Metabolite-to-parent AUC0-24h ratio / AUC(0-t): geometric mean (CV%); for tmax: median (range)
[2] = Drug solubility in simulated intestinal fluids; type: physicochemical
[3] = cited from earlier work
[4] = FeSSIF pH 5.0
[5] = rats; EGCG group (control group 79%); cited from earlier work
[6] = rats; oral administration of EGCG and sunitinib; cited from earlier work
[7] = FaSSIF pH 6.5
[8] = cited from earlier work; remark: listed apart in the source
[9] = mice, plasma, raloxifene 20 mg/kg oral with EGCG 12.96 mg/kg
[10] = mice, plasma, raloxifene 20 mg/kg oral with green tea extract 200 mg/kg
[11] = mice, raloxifene 20 mg/kg oral alone in vehicle
[12] = mice, raloxifene 20 mg/kg oral with EGCG 12.96 mg/kg
[13] = mice, raloxifene 20 mg/kg oral with green tea extract 200 mg/kg

O=C(c1ccc(OCCN2CCCCC2)cc1)c1c(-c2ccc(O)cc2)sc2cc(O[C@@H]3O[C@H](C(=O)O)[C@@H](O)[C@H](O)[C@H]3O)ccc12 [Raloxifene-6-glucuronide, raloxifene-6-glucuronide]
Cmax ([1]; mice, plasma, raloxifene 20 mg/kg oral with EGCG 12.96 mg/kg (0, 4, 8 h)): 820 nM | AUC0-4h [1, 9]: 1200 (53) nM•h | AUC0-24h [1, 9]: 2150 (52) nM•h | Cmax ([1]; mice, plasma, raloxifene 20 mg/kg oral with green tea extract 200 mg/kg (0, 4, 8 h)): 288 nM | AUC0-4h [1, 10]: 624 (31) nM•h | AUC0-24h [1, 10]: 1560 (32) nM•h | Metabolite-to-parent AUC0-4h ratio [1, 11]: 2.74 (30) | Metabolite-to-parent AUC0-24h ratio [1, 11]: 2.23 (36) | tmax [1, 11]: 0.25 (0.25 - 0.5) h | Metabolite-to-parent AUC0-4h ratio [1, 12]: 3.74 (25) | Metabolite-to-parent AUC0-24h ratio [1, 12]: 2.48 (38) | tmax [1, 12]: 0.5 (0.25 - 4) h | Metabolite-to-parent AUC0-4h ratio [1, 13]: 3.12 (34) | Metabolite-to-parent AUC0-24h ratio [1, 13]: 2.33 (24) | tmax [1, 13]: 0.25 (0.25 - 0.5) h

CC(C)(C)NCC(O)COc1cccc2c1CC(O)C(O)C2 (centres unmarked) [Nadolol]
solubility in simulated intestinal fluids (in words) ([2]; at 0.16 mg/mL): completely soluble | logP [3]: 0.85

O=C(O[C@@H]1Cc2c(O)cc(O)cc2O[C@@H]1c1cc(O)c(O)c(O)c1)c1cc(O)c(O)c(O)c1 [EGCG, (−)-epigallocatechin gallate]
effect on raloxifene solubility (concentration) in FeSSIF (in words) [4]: neither green tea extract nor EGCG significantly affected; also recorded: did not change; also recorded: Neither green tea extract nor EGCG had a significant effect | intestinal absorption of cholesterol from a test meal [5]: 63% | effect on Cmax of raloxifene and raloxifene-6-glucuronide (in words) ([1]; mice, compared to vehicle group, EGCG 12.96 mg/kg): no effect | reduction of sunitinib AUC0-∞ [6]: 52% | reduction of sunitinib Cmax [6]: 48% | effect on raloxifene solubility in FaSSIF (in words) [7]: decreased the solubility

O=C(c1ccc(OCCN2CCCCC2)cc1)c1c(-c2ccc(O)cc2)sc2cc(O)ccc12 [Raloxifene, Raloxifene hydrochloride]
raloxifene solubility in FeSSIF compared to FaSSIF ([2]; FeSSIF pH 5.0 vs FaSSIF pH 6.5): 3.4 fold | overt effects in the mice after administration ([1]; during the study): No overt effects | AUC(0-t) ([1]; male, C57BL/6, mouse, plasma, po, 20 mg/kg, AUC0-4h, mice, raloxifene 20 mg/kg oral with EGCG 12.96 mg/kg): 0.322 µM·h | AUC(0-t) ([1]; male, C57BL/6, mouse, plasma, po, 20 mg/kg, AUC0-4h, mice, raloxifene 20 mg/kg oral with green tea extract 200 mg/kg): 0.2 µM·h | AUC(0-t) ([1]; male, C57BL/6, mouse, plasma, po, 20 mg/kg, AUC0-24h, mice, raloxifene 20 mg/kg oral with EGCG 12.96 mg/kg): 0.867 µM·h | AUC(0-t) ([1]; male, C57BL/6, mouse, plasma, po, 20 mg/kg, AUC0-24h, mice, raloxifene 20 mg/kg oral with green tea extract 200 mg/kg): 0.669 µM·h | Cmax ([1]; male, C57BL/6, mouse, plasma, po, 20 mg/kg, Cmax, mice, raloxifene 20 mg/kg oral with EGCG 12.96 mg/kg (0, 4, 8 h)): 168 nM | Cmax ([1]; male, C57BL/6, mouse, plasma, po, 20 mg/kg, Cmax, mice, raloxifene 20 mg/kg oral with green tea extract 200 mg/kg (0, 4, 8 h)): 79 nM | tmax ([1]; male, C57BL/6, mouse, plasma, po, 20 mg/kg, tmax, mice, raloxifene 20 mg/kg oral with EGCG 12.96 mg/kg): 0.5 h | tmax ([1]; male, C57BL/6, mouse, plasma, po, 20 mg/kg, tmax, mice, raloxifene 20 mg/kg oral with green tea extract 200 mg/kg): 4 h | oral bioavailability [8]: ~ 2% | logP [3]: 5.78
